According to PubChem BioAssay AID2060486 (Molecular Pharmacology Branch, DTP, NCI, 2025):

Test system: IGROV1 complex spheroids (HUVEC, MSC), viability % test/control
Assay: Anticancer human tumor IGROV1 cell line growth inhibition [GQUAD];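 further: spheroids exposed to compounds for 7 days before readout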
Settings: for IC50: curve of first compound; for viability, T/C: stronger effect = lower value
Source text: DNA G-quadruplex Stabilizer Agents in Combinations in Complex Spheroids
A high-throughput screen of multi-cell type tumor spheroids was designed to identify active combinations of DNA G-quadruplex stabilizer agents and targeted small molecules. Complex spheroids include a stromal component modeled by human endothelial cells (HUVEC) and fibroblasts modeled by human mesenchymal stem cells (MSCs). The concentration ranges selected for each drug and investigational agent were based upon clinically achievable concentrations if the clinical Cmax of the agent was known.
Compounds. The drugs and investigational agents: pidnarulex (CX-5461; NSC782164), APTO-253 (NSC789042), BRACO-19 (NSC847499), peposertib (NSC802822), ceralasertib (NSC780249), elimusertib (NSC800525), camonsertib (NSC841442), AZD-1390 (NSC803789), olaparib (NSC753686), talazoparib (NSC767125), ART-558 (NSC835418), sotorasib (NSC818433), MRTX-1133 (NSC836407), SN-38 (NSC673596), topotecan (NSC609699), etoposide (NSC141540), doxorubicin (NSC123127), gemcitabine (NSC613327), 5-fluorouracil (NSC19893), paclitaxel (NSC125973), vemurafenib (NSC761431), panobinostat (NSC761190), R-306465 (JNJ-16241199; NSC773264), adavosertib (NSC754352), TP-3654 (NSC805149), carboplatin (NSC241240), KSQ-4279 (NSC840948), and staurosporine (NSC755774) were obtained from the National Cancer Institute (NCI) Developmental Therapeutics Program Chemical Repository (34). The FDA-approved anticancer drug set is available from the NCI Developmental Therapeutics Program. […] The stock solutions were prepared in dimethyl sulfoxide (DMSO, Sigma-Aldrich, St. Louis, MO, cat. D2650) at 800-fold the tested concentration and stored at -70 degrees C prior to their use. All drugs and investigational agents were tested over a range starting from a high concentration at or near the clinical Cmax and decreasing in half-log increments. If the clinical Cmax for an agent had not been determined, the highest concentration tested was 10 microM.
2.3 Cell Culture. All cells were maintained in an incubator at 37 degrees C and 5% CO2 with 95% humidity. The PDC lines were cultured according to standard operating procedures established by the NCI PDMR. All PDCs were thawed and cultured in Matrigel-coated flasks prepared with a working solution of 1X Ham's F-12 nutrient mix, without supplementation (Invitrogen, cat. 11765054), 100 U/mL penicillin-streptomycin (Invitrogen, cat. 15140122), and 2.5% Matrigel (Corning Inc., cat. 354248) for the first three passages. The 857933-349-R-J2-PDC line was cultured in 6C/Colon 1B media, which includes advanced DMEM/F-12 (Thermo Fisher Scientific, cat. 12634028), 10 mM HEPES (Thermo Fisher Scientific, cat. 15630080), 1X GlutaMAX supplement (Thermo Fisher Scientific, cat. 35050061), 0.1 mg/mL primocin (InvivoGen, cat. ant-pm-2), 10% defined fetal bovine serum, heat inactivated (HyClone Laboratories Inc., cat. SH30070.03HI), 50% L-WRN conditioned media (ATCC, cat. CRL-3276), 1.25 mM N-Acetyl-L-cysteine (Sigma-Aldrich, cat. A9165), 10 mM nicotinamide (Sigma-Aldrich, cat. N0636), 1X B-27 supplement (Thermo Fisher Scientific, cat. 17504044), 1X N-2 supplement (Thermo Fisher Scientific, cat. 17502048), 10 microM Y-27632 dihydrochloride (Tocris Bioscience, cat. 1254), and 50 ng/mL human EGF recombinant protein (Thermo Fisher Scientific, cat. PHG0311). The 485176-168-R4-J1-PDC line was cultured in Panc media, which includes all 6C/Colon 1B media components plus 100 ng/mL human FGF-10 (Thermo Fisher Scientific, cat. 100-26), 500 nM SB-431542 (Selleckchem, cat. S1067), and gastrin (Tocris, cat. 3006).
[…]

[1] = second compound 0.0316 µM, first compound 0.0316 µM
[2] = second compound 0.0316 µM, first compound 0.1 µM
[3] = second compound 0.0316 µM, first compound 0.316 µM
[4] = second compound 0.0316 µM, first compound 1 µM
[5] = second compound 0.0316 µM, first compound 3.16 µM
[6] = second compound 0.0316 µM, first compound 10 µM
[7] = second compound 0.1 µM, first compound 0.0316 µM
[8] = second compound 0.1 µM, first compound 0.1 µM
[9] = second compound 0.1 µM, first compound 0.316 µM
[10] = second compound 0.1 µM, first compound 1 µM
[11] = second compound 0.1 µM, first compound 3.16 µM
[12] = second compound 0.1 µM, first compound 10 µM
[13] = second compound 0.316 µM, first compound 0.0316 µM
[14] = second compound 0.316 µM, first compound 0.1 µM
[15] = second compound 0.316 µM, first compound 0.316 µM
[16] = second compound 0.316 µM, first compound 1 µM
[17] = second compound 0.316 µM, first compound 3.16 µM
[18] = second compound 0.316 µM, first compound 10 µM
[19] = second compound 1 µM, first compound 0.0316 µM
[20] = second compound 1 µM, first compound 0.1 µM
[21] = second compound 1 µM, first compound 0.316 µM
[22] = second compound 1 µM, first compound 1 µM
[23] = second compound 1 µM, first compound 3.16 µM
[24] = second compound 1 µM, first compound 10 µM
[25] = second compound 3.16 µM, first compound 0.0316 µM
[26] = second compound 3.16 µM, first compound 0.1 µM
[27] = second compound 3.16 µM, first compound 0.316 µM
[28] = second compound 3.16 µM, first compound 1 µM
[29] = second compound 3.16 µM, first compound 3.16 µM
[30] = second compound 3.16 µM, first compound 10 µM
[31] = second compound 10 µM, first compound 0.0316 µM
[32] = second compound 10 µM, first compound 0.1 µM
[33] = second compound 10 µM, first compound 0.316 µM
[34] = second compound 10 µM, first compound 1 µM
[35] = second compound 10 µM, first compound 3.16 µM
[36] = second compound 10 µM, first compound 10 µM

CC(C)(O)C1CCC(Nc2ccc3ncc(-c4cccc(C(F)(F)F)c4)n3n2)CC1 (centres undefined) + Cc1[nH]c2ccc(F)cc2c1-c1nc2c3cccnc3c3ncccc3c2[nH]1
IC50 (second compound 0.0316 µM): 2010 nM | IC50 (second compound 0.1 µM): 1820 nM | IC50 (second compound 0.316 µM): 623 nM | IC50 (second compound 1 µM): < 31.6 nM | IC50 (second compound 3.16 µM): < 31.6 nM | IC50 (second compound 10 µM): < 31.6 nM | viability, T/C [1]: 93.8% | viability, T/C [2]: 83.1% | viability, T/C [3]: 94.3% | viability, T/C [4]: 82.7% | viability, T/C [5]: 27.4% | viability, T/C [6]: 30% | viability, T/C [7]: 99.3% | viability, T/C [8]: 83.3% | viability, T/C [9]: 102% | viability, T/C [10]: 68.5% | viability, T/C [11]: 32.9% | viability, T/C [12]: 33.4% | viability, T/C [13]: 69.6% | viability, T/C [14]: 70.6% | viability, T/C [15]: 65.3% | viability, T/C [16]: 38.8% | viability, T/C [17]: 6.69% | viability, T/C [18]: 5.42% | viability, T/C [19]: 3.27% | viability, T/C [20]: 3.08% | viability, T/C [21]: 4.14% | viability, T/C [22]: 3.08% | viability, T/C [23]: 3.37% | viability, T/C [24]: 2.43% | viability, T/C [25]: 2.86% | viability, T/C [26]: 3.13% | viability, T/C [27]: 3.35% | viability, T/C [28]: 3.26% | viability, T/C [29]: 2.39% | viability, T/C [30]: 2.06% | viability, T/C [31]: 3.41% | viability, T/C [32]: 3.18% | viability, T/C [33]: 3.27% | viability, T/C [34]: 2.99% | viability, T/C [35]: 2.37% | viability, T/C [36]: 2.38%

CC1COCCN1c1cc(C2(O)CC3CCC(C2)O3)c2cnn(-c3ccn[nH]3)c2n1 (centres undefined) + Cc1cnc(CNC(=O)c2c(=O)c3ccc(N4CCCN(C)CC4)nc3n3c2sc2ccccc23)cn1
IC50 (second compound 0.0316 µM): < 31.6 nM | IC50 (second compound 0.1 µM): < 31.6 nM | IC50 (second compound 0.316 µM): < 31.6 nM | IC50 (second compound 1 µM): < 31.6 nM | IC50 (second compound 3.16 µM): < 31.6 nM | IC50 (second compound 10 µM): < 31.6 nM | viability, T/C [1]: 13.8% | viability, T/C [2]: 8.52% | viability, T/C [3]: 5.86% | viability, T/C [4]: 3.91% | viability, T/C [5]: 3.41% | viability, T/C [6]: 2.21% | viability, T/C [7]: 10.6% | viability, T/C [8]: 7.17% | viability, T/C [9]: 5.58% | viability, T/C [10]: 4.56% | viability, T/C [11]: 3.63% | viability, T/C [12]: 2.02% | viability, T/C [13]: 8.26% | viability, T/C [14]: 6.06% | viability, T/C [15]: 5.61% | viability, T/C [16]: 4.38% | viability, T/C [17]: 2.92% | viability, T/C [18]: 2.02% | viability, T/C [19]: 5.97% | viability, T/C [20]: 6.1% | viability, T/C [21]: 5.48% | viability, T/C [22]: 3.78% | viability, T/C [23]: 3.09% | viability, T/C [24]: 1.97% | viability, T/C [25]: 5.79% | viability, T/C [26]: 6.38% | viability, T/C [27]: 5% | viability, T/C [28]: 2.96% | viability, T/C [29]: 2.76% | viability, T/C [30]: 1.84% | viability, T/C [31]: 5.85% | viability, T/C [32]: 5.61% | viability, T/C [33]: 4.3% | viability, T/C [34]: 4.69% | viability, T/C [35]: 3.15% | viability, T/C [36]: 1.81%
